Data as given in patent US20080009418A1, “Selective Inhibitors” (Alchemia LTD., priority 2004, published 2008).

Key:
[1] = target: T1, Human neuropeptide Y (NPY-Y1) (Homo sapiens, UniProt P25929); test: Radioligand binding, human neuropeptide Y NPY-Y1 membranes, FlashPlate, [125I]-PYY; conditions: compound at 10 μM, [125I]-PYY
T1 construct: purchased Perkin Elmer Biosignal
T1 sequence (P25929 1-384): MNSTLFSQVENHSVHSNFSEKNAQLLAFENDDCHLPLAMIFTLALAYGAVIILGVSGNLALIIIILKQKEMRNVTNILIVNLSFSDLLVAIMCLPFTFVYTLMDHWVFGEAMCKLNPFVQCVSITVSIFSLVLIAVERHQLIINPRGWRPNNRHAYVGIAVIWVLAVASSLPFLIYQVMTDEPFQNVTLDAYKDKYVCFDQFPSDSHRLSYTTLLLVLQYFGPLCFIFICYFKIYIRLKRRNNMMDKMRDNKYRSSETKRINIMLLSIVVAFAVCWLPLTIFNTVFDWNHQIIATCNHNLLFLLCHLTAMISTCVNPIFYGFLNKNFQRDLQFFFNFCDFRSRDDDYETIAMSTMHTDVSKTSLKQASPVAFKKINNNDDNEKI
Outline: (§1)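 Cloned human receptor membranes were coated onto FlashPlate wells and incubated with radioligand and compound (added from a 0.5 mM DMSO daughter plate) for 1 hour at room temperature in the dark. Scintillation counting gave percent inhibition, with DMSO defining total and reference ligand defining non-specific binding.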

Human melanocortin (MC5) = target: T2, Human melanocortin (MC5) (Homo sapiens, UniProt P33032); test: Radioligand binding, human melanocortin MC5 membranes, FlashPlate, [125I]-NDP-αMSH; conditions: compound at 10 μM, [125I]-NDP-αMSH
T2 construct: purchased Perkin Elmer Biosignal
Outline: as §1

Human κ-Opioid (KOP) = target: T3, Human κ-Opioid (KOP) (Homo sapiens, UniProt P41145); test: Radioligand binding, human κ-opioid (KOP) membranes, filtration, [3H]-Diprenorphine; conditions: compound at 10 μM, [3H]-Diprenorphine
T3 construct: purchased Perkin Elmer Biosignal
Outline: (§2)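 Percent inhibition of radioligand binding measured on recombinant human membranes: NK1 with [125I]-Substance P, KOP with [3H]-Diprenorphine. Incubation 1 h at room temperature, then harvest onto 0.3% PEI-soaked filters, cold Tris-HCl pH 7.4 washes and scintillation counting; non-specific binding from reference ligand wells.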

[2] = target: T4, Human melanin-concentrating hormone (MCH1) (Homo sapiens, UniProt Q99705); test: Radioligand binding, human melanin-concentrating hormone MCH1 membranes, FlashPlate, [125I]-S36057; conditions: compound at 10 μM
T4 construct: purchased Perkin Elmer Biosignal
Outline: as §1

Mouse urotensin (mUR2) = target: T5, Mouse urotensin (mUR2) (Mus musculus, UniProt Q8VIH9); test: Radioligand binding, mouse urotensin mUR2 membranes, FlashPlate, [125I]-Urotensin II; conditions: compound at 10 μM, [125I]-Urotensin II
T5 construct: purchased Perkin Elmer Biosignal
T5 sequence (Q8VIH9 1-385): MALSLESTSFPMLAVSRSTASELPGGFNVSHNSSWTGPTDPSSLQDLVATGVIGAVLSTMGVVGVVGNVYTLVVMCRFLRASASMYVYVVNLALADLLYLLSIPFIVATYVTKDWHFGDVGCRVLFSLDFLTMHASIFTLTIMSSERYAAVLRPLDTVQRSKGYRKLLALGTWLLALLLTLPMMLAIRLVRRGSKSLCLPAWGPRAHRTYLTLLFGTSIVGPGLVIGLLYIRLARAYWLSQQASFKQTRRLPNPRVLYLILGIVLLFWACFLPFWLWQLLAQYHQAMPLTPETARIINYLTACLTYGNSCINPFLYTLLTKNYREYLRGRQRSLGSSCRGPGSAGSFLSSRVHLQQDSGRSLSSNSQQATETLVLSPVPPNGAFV
Outline: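 Cloned mouse urotensin (mUR2) receptor membranes from Perkin Elmer Biosignal were immobilized in FlashPlate microplates using a proprietary coating. Each well got 19.5 μl buffer, then 0.5 μl of DMSO, reference ligand, or compound. Adding 5 μl of [125I]-Urotensin II, diluted to 5× final concentration in binding buffer, started binding. Plates were sealed with TopSeal-A and incubated 1 hour at room temperature in the dark. Wells were counted for 30 seconds each on a TopCount after a 60-second delay, and percentage inhibition was calculated.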

Human neurokinin (NK1) = target: T6, Human neurokinin (NK1) (Homo sapiens, UniProt P25103); test: Radioligand binding, human neurokinin NK1 membranes, filtration, [125I]-Substance P; conditions: compound at 10 μM, [125I]-Substance P
T6 construct: purchased Perkin Elmer Biosignal
Outline: as §2

Human opioid (ORL1) = target: T7, Human opioid (ORL1) (Homo sapiens, UniProt P41146); test: Radioligand binding, human opioid ORL1 membranes, FlashPlate, [125I]-Nociceptin; conditions: compound at 10 μM, [125I]-Nociceptin
T7 construct: purchased Perkin Elmer Biosignal
Outline: as §1

Human Melanocortin (MC3) = target: T8, Human Melanocortin (MC3) (Homo sapiens, UniProt P41968); test: Radioligand binding, human melanocortin MC3 membranes, FlashPlate, [125I]-NDP-αMSH; conditions: compound at 10 μM, [125I]-NDP-αMSH
T8 construct: purchased Perkin Elmer Biosignal
Outline: as §1

Human Melanocortin (MC4) = target: T9, Human Melanocortin (MC4) (Homo sapiens, UniProt P32245); test: Radioligand binding, human melanocortin MC4 membranes, FlashPlate, [125I]-NDP-αMSH; conditions: compound at 10 μM, [125I]-NDP-αMSH
T9 construct: purchased Perkin Elmer Biosignal
Outline: as §1

Human δ-opioid (DOP) = target: T10, Human δ-opioid (DOP) (Homo sapiens, UniProt P41143); test: Radioligand binding, human δ-opioid (DOP) membranes, FlashPlate, [3H]-Bremazocine; conditions: compound at 10 μM, [3H]-Bremazocine
T10 construct: purchased Perkin Elmer Biosignal
Outline: as §1

Human μ-opioid (MOP) = target: T11, Human μ-opioid (MOP) (Homo sapiens, UniProt P35372); test: Radioligand binding, human μ-opioid (MOP) membranes, FlashPlate, [3H]-Naloxone; conditions: compound at 10 μM, [3H]-Naloxone
T11 construct: purchased Perkin Elmer Biosignal
Outline: as §1

[3] = [125I]-S36057, human MCH1 membranes

T7 sequence (P41146 whole entry): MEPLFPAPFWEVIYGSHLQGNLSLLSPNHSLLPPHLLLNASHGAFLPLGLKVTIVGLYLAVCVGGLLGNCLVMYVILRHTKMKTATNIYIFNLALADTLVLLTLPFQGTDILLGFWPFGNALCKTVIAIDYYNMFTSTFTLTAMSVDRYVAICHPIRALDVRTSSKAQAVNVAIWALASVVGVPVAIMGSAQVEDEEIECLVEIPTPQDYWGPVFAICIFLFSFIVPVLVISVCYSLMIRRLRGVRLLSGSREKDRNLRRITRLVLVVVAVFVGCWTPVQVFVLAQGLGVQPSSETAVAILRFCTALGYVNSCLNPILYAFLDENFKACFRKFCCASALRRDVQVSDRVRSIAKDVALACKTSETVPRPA
T11 sequence (P35372 whole entry): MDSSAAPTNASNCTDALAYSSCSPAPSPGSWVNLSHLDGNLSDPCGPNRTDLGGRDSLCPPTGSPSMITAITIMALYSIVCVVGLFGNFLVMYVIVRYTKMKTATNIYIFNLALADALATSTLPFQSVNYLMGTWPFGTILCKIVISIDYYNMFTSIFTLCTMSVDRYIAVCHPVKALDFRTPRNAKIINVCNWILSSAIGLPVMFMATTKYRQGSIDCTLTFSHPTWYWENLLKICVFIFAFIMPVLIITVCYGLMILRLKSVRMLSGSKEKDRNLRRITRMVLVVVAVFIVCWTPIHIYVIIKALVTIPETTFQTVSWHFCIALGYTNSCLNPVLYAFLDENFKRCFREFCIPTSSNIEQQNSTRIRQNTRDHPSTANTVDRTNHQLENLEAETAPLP
T8 sequence (P41968 whole entry): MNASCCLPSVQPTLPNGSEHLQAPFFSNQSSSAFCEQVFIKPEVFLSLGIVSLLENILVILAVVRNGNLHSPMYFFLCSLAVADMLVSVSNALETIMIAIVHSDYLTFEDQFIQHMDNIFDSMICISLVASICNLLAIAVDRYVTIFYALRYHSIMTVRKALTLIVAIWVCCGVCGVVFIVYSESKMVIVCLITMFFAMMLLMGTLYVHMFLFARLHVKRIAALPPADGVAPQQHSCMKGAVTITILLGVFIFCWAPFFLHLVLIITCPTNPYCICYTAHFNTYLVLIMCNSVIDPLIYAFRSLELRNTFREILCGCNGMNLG
T4 sequence (Q99705 whole entry): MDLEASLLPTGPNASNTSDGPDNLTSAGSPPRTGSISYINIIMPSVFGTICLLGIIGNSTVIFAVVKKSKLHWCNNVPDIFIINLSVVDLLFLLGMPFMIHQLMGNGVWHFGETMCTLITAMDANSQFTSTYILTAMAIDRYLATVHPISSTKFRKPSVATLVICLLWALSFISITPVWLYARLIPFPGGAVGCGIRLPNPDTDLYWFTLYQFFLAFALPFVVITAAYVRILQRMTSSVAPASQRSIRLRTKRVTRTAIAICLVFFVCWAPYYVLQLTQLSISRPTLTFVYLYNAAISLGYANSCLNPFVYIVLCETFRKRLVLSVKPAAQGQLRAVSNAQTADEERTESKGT
T10 sequence (P41143 whole entry): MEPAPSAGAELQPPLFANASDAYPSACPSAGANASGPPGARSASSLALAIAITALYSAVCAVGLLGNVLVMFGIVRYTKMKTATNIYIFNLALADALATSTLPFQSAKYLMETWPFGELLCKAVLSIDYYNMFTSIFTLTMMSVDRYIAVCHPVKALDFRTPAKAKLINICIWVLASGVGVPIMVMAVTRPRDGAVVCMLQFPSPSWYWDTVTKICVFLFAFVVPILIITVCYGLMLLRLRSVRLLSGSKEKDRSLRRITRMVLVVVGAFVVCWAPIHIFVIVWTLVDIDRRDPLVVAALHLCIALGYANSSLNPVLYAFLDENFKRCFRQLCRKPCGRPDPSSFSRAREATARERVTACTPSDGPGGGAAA
T9 sequence (P32245 whole entry): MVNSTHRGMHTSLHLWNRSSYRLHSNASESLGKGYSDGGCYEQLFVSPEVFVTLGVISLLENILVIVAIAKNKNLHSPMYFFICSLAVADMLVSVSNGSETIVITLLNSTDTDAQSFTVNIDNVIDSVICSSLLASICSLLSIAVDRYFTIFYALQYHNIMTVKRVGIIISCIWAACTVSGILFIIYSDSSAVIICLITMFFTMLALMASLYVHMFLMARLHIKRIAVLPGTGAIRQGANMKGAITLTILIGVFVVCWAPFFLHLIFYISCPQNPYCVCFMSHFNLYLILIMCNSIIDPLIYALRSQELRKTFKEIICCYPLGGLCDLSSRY
T3 sequence (P41145 whole entry): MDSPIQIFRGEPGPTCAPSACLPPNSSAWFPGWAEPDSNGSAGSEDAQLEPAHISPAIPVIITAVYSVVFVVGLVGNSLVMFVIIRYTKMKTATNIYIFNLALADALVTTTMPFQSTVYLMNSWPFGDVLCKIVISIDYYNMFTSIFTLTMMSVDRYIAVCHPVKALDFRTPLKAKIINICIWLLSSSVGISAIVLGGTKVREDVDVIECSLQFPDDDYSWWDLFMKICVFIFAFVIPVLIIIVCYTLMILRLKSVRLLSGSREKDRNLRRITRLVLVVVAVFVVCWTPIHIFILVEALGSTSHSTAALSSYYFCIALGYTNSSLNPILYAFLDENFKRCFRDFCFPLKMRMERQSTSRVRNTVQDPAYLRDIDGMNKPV
T2 sequence (P33032 whole entry): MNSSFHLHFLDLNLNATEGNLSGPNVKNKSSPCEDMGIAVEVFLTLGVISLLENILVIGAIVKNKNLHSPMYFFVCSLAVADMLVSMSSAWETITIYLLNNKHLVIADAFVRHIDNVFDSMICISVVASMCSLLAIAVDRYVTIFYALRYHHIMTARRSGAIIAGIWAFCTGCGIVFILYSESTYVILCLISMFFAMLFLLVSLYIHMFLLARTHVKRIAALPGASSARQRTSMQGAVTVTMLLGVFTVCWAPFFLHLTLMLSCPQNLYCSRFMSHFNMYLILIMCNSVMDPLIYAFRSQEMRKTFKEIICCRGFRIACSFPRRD
T6 sequence (P25103 whole entry): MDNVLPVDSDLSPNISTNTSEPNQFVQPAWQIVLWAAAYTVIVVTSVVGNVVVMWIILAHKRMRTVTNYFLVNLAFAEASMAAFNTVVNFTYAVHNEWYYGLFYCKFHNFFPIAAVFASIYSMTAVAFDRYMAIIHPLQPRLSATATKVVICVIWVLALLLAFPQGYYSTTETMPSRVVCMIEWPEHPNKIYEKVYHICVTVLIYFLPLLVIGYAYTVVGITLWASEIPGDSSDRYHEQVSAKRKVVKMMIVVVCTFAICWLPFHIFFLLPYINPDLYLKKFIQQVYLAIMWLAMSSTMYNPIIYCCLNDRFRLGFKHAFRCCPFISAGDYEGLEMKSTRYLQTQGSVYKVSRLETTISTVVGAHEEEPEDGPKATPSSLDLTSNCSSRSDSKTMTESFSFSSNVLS

Structure (SMILES) | A9: inhibition of radioligand binding ([1]; FlashPlate) | A5: inhibition of radioligand binding (Human melanocortin (MC5); FlashPlate) | A2: inhibition of radioligand binding (Human κ-Opioid (KOP); filtration) | A6: inhibition of radioligand binding ([2]; [125I]-S36057, FlashPlate) | A11: inhibition of radioligand binding (Mouse urotensin (mUR2); FlashPlate) | A8: inhibition of radioligand binding (Human neurokinin (NK1); filtration) | A10: inhibition of radioligand binding (Human opioid (ORL1); FlashPlate) | A3: inhibition of radioligand binding (Human Melanocortin (MC3); FlashPlate) | A4: inhibition of radioligand binding (Human Melanocortin (MC4); FlashPlate) | A1: inhibition of radioligand binding (Human δ-opioid (DOP); FlashPlate) | A7: inhibition of radioligand binding (Human μ-opioid (MOP); FlashPlate) | A9: inhibition of radioligand binding ([1]; human NPY-Y1 membranes) | A5: inhibition of radioligand binding (Human melanocortin (MC5); human MC5 membranes) | A2: inhibition of radioligand binding (Human κ-Opioid (KOP); human KOP membranes) | A6: inhibition of radioligand binding [2, 3] | A11: inhibition of radioligand binding (Mouse urotensin (mUR2); mouse mUR2 membranes) | A8: inhibition of radioligand binding (Human neurokinin (NK1); human NK1 membranes) | A3: inhibition of radioligand binding (Human Melanocortin (MC3); human MC3 membranes) | A4: inhibition of radioligand binding (Human Melanocortin (MC4); human MC4 membranes) | A1: inhibition of radioligand binding (Human δ-opioid (DOP); human DOP membranes) | also measured
COCC1OC(OCCc2ccccc2)C(NC(=O)CN)C(OCc2ccccc2)C1O (stereo not shown) [compound 214] | − (“−” indicates less than 50% inhibition at 10 μM) | − (“−” indicates less than 50% inhibition at 10 μM) | − (“−” indicates less than 50% inhibition at 10 μM) | − (“−” indicates less than 50% inhibition at 10 μM) | − (“−” indicates less than 50% inhibition at 10 μM) | + (“+” indicates greater than 50% inhibition at 10 μM) | − (“−” indicates less than 50% inhibition at 10 μM) | − (“−” indicates less than 50% inhibition at 10 μM) | − (“−” indicates less than 50% inhibition at 10 μM) | − (“−” indicates less than 50% inhibition at 10 μM) | − (“−” indicates less than 50% inhibition at 10 μM) | – | – | – | – | – | – | – | – | – | –
N=C(N)NCC(=O)NC1C(OCc2ccc(Cl)cc2)OC(COCc2ccc3ccccc3c2)C(O)C1OCc1ccc(Cl)cc1 (stereo not shown) [compound 417] | – | – | – | – | – | – | – | – | – | – | – | − (“−” indicates less than 50% inhibition at 10 μM) | + (“+” indicates greater than 50% inhibition at 10 μM) | − (“−” indicates less than 50% inhibition at 10 μM) | + (“+” indicates greater than 50% inhibition at 10 μM) | − (“−” indicates less than 50% inhibition at 10 μM) | + (“+” indicates greater than 50% inhibition at 10 μM) | + (“+” indicates greater than 50% inhibition at 10 μM) | + (“+” indicates greater than 50% inhibition at 10 μM) | − (“−” indicates less than 50% inhibition at 10 μM) | A10: inhibition of radioligand binding (Human opioid (ORL1); human ORL1 membranes): − (“−” indicates less than 50% inhibition at 10 μM); A7: inhibition of radioligand binding (Human μ-opioid (MOP); human MOP membranes): − (“−” indicates less than 50% inhibition at 10 μM)
CSC1O[C@H](COCc2ccc3ccccc3c2)[C@@H](O)[C@@H](OCc2ccc(Cl)cc2)[C@H]1NC(=O)CCN (stereo partly shown) [compound 282] | − (“−” indicates less than 50% inhibition at 10 μM) | − (“−” indicates less than 50% inhibition at 10 μM) | − (“−” indicates less than 50% inhibition at 10 μM) | − (“−” indicates less than 50% inhibition at 10 μM) | − (“−” indicates less than 50% inhibition at 10 μM) | + (“+” indicates greater than 50% inhibition at 10 μM) | − (“−” indicates less than 50% inhibition at 10 μM) | − (“−” indicates less than 50% inhibition at 10 μM) | + (“+” indicates greater than 50% inhibition at 10 μM) | − (“−” indicates less than 50% inhibition at 10 μM) | − (“−” indicates less than 50% inhibition at 10 μM) | – | – | – | – | – | – | – | – | – | –
NCCCC(=O)NC1C(OCc2ccc3ccccc3c2)OC(COCc2ccc3ccccc3c2)C(O)C1OCc1ccc(Cl)cc1 (single isomer, unassigned) [compound 455] | – | – | – | – | – | – | – | – | – | – | – | − (“−” indicates less than 50% inhibition at 10 μM) | + (“+” indicates greater than 50% inhibition at 10 μM) | – | + (“+” indicates greater than 50% inhibition at 10 μM) | − (“−” indicates less than 50% inhibition at 10 μM) | + (“+” indicates greater than 50% inhibition at 10 μM) | + (“+” indicates greater than 50% inhibition at 10 μM) | + (“+” indicates greater than 50% inhibition at 10 μM) | − (“−” indicates less than 50% inhibition at 10 μM) | A2: inhibition of radioligand binding (Human κ-Opioid (KOP); human KOP membranes, 10 µM): + (“+” indicates greater than 50% inhibition at 10 μM); A10: inhibition of radioligand binding (Human opioid (ORL1); human ORL1 membranes, 10 µM): − (“−” indicates less than 50% inhibition at 10 μM); A7: inhibition of radioligand binding (Human μ-opioid (MOP); human MOP membranes, 10 µM): + (“+” indicates greater than 50% inhibition at 10 μM)
NCCCC(=O)NC1C(OCc2ccc3ccccc3c2)OC(COCc2ccccc2)C(O)C1OCc1ccc(Cl)cc1 (stereo not shown) [compound 391] | – | – | – | – | – | – | – | – | – | – | – | − (“−” indicates less than 50% inhibition at 10 μM) | – | − (“−” indicates less than 50% inhibition at 10 μM) | – | − (“−” indicates less than 50% inhibition at 10 μM) | + (“+” indicates greater than 50% inhibition at 10 μM) | − (“−” indicates less than 50% inhibition at 10 μM) | – | − (“−” indicates less than 50% inhibition at 10 μM) | A5: inhibition of radioligand binding (Human melanocortin (MC5); human MC5 membranes, 10 µM): − (“−” indicates less than 50% inhibition at 10 μM); A6: inhibition of radioligand binding ([2]; [125I]-S36057, human MCH1 membranes, 10 µM): − (“−” indicates less than 50% inhibition at 10 μM); A10: inhibition of radioligand binding (Human opioid (ORL1); human ORL1 membranes, 10 µM): − (“−” indicates less than 50% inhibition at 10 μM); A4: inhibition of radioligand binding (Human Melanocortin (MC4); human MC4 membranes, 10 µM): + (“+” indicates greater than 50% inhibition at 10 μM); A7: inhibition of radioligand binding (Human μ-opioid (MOP); human MOP membranes, 10 µM): − (“−” indicates less than 50% inhibition at 10 μM)
